Results as given in publication PMC4660442, “Identification of potential inhibitors based on compound proposal contest: Tyrosine-protein kinase Yes as a target” (Scientific Reports, 2015).

Biological target: T1, tyrosine-protein kinase Yes (Homo sapiens, UniProt P07947)
T1 construct: gene YES1
Assay: reference inhibitor in ADP-Glo kinase assay, recombinant human Yes; no value given
Format: biochemical

T1 sequence (P07947 2-543): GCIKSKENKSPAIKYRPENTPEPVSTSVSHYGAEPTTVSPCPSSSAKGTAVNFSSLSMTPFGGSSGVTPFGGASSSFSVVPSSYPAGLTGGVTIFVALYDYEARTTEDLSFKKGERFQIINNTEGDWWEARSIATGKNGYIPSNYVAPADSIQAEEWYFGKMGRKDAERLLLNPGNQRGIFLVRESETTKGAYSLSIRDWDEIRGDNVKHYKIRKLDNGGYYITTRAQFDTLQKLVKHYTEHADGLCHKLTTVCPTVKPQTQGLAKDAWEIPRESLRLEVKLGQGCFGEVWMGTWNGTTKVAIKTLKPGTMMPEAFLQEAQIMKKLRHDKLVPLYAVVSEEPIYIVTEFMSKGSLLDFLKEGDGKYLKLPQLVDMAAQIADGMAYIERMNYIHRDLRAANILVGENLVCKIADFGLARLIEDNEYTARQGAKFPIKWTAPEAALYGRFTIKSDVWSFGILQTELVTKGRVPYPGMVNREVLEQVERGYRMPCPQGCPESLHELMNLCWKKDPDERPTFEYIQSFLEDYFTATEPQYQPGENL

CN[C@@H]1C[C@H]2O[C@@](C)([C@@H]1OC)n1c3ccccc3c3c4c(c5c6ccccc6n2c5c31)C(=O)NC4 [Staurosporine]
reference inhibitor in ADP-Glo kinase assay, recombinant human Yes; no value pri: Staurosporine, a well-known pan-kinase inhibitor typically used as a reference in kinase assays, was selected as an active inhibitor for Yes
